Experiments:
[1] = molecular target: T1, mTGR5 (Mus musculus, UniProt Q80SS6); experiment: TGR5/CRE Luciferase Assay (mTGR5); assay type: cell-based; details: for EC50: HEK 293 cells co-transfected with pCMV AC6-TGR5m and pCRE TA-Luciferase, overnight incubation; for mTGR5 % trans: percentage of the 10 μM LCA value, HEK 293 cells transfected with mTGR5
T1 construct: expressed in transfected cells; host or cells: HEK293 cells, transiently co-transfected with the pCRE TA-Luciferase reporter
T1 sequence (Q80SS6 1-329): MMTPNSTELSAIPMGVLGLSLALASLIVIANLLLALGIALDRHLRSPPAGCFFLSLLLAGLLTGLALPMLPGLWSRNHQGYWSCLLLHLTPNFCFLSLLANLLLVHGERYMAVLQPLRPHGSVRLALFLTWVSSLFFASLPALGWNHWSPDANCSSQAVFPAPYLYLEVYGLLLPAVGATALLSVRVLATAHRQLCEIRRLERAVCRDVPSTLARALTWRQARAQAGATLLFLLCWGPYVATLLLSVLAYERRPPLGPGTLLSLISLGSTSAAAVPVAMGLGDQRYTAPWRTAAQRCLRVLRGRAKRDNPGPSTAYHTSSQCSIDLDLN
Description: (§1) TGR5/CRE Luciferase Assay
(§2) In the following Tables TGR5 activation by compounds of the invention and subsequent increase in intracellular cAMP were evaluated using a luciferase reporter gene assay. Human embryonic kidney (HEK) 293 cells were transiently co-transfected with pCMV tag4b-TGR5 h (to follow hTGR5 activation) or pCMV AC6-TGR5m (to follow mTGR5 activation) expression plasmids and the pCRE TA-Luciferase reporter plasmid using the JET PEI reagent (Polyplus transfection). Transfected cells were seeded in 96-well plates and incubated overnight with the test compounds at increasing concentrations tested in duplicate. Lithocolic acid (LCA) at 10 μM was used as a positive reference compound. The cAMP-dependent luciferase expression was followed using the BrightGlo reagent according to the manufacturer (Promega) instructions. Luminescence was read with a Mithras plate reader (Berthold) or a Victor3™ V1420 (Perkin Elmer). […] Concentration-response curves were fitted by a nonlinear regression analysis to a 4 parameter logistic equation

[2] = molecular target: T2, hTGR5 (Homo sapiens, UniProt Q8TDU6); experiment: TGR5/CRE Luciferase Assay (hTGR5); assay type: cell-based; details: for EC50: HEK 293 cells co-transfected with pCMV tag4b-TGR5h and pCRE TA-Luciferase, overnight incubation; for hTGR5 % trans: percentage of the 10 μM LCA value, HEK 293 cells transfected with hTGR5
T2 construct: expressed in transfected cells; host or cells: HEK293 cells, transiently co-transfected with the pCRE TA-Luciferase reporter
T2 sequence (Q8TDU6 1-330): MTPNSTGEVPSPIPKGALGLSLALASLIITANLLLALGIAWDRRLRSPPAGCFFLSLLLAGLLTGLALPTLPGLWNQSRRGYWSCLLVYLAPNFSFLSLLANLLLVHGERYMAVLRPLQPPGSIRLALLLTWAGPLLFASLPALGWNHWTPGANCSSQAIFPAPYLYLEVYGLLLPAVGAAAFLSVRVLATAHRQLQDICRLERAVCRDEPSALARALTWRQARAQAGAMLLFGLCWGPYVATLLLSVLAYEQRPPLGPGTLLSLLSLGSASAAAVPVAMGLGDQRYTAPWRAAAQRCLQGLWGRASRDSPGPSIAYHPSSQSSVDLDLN
Description: as §1, §2

Row | EC50 [1] | mTGR5 % trans [1] | EC50 [2] | hTGR5 % trans [2] | SMILES
1 | 1700 nM | 21% | – | – | CC1=C(C(=O)OCc2ccccc2)C(c2ccc(Br)cc2)CC(=O)N1 (stereo not shown) [Compound 16, benzyl 4-(4-bromophenyl)-6-methyl-2-oxo-3,4-dihydro-1H-pyridine-5-carboxylate]
2 | 300 nM | – | – | – | CC1=C(C(=O)OCc2ccccc2)C(c2ccc(Cl)cc2)CC(=O)N1CC1CC1 (stereo not shown) [Compound 43, Benzyl 4-(4-chlorophenyl)-1-(cyclopropylmethyl)-6-methyl-2-oxo-3,4-dihydropyridine-5-carboxylate]
3 | 5800 nM | 34% | – | – | CN1C=C(C(=O)OCc2ccccc2)C(c2ccc(Cl)cc2)CC1=O (stereo not shown) [Compound 24, Benzyl 4-(4-chlorophenyl)-1-methyl-2-oxo-3,4-dihydropyridine-5-carboxylate]
4 | – | – | 8 nM | 103% | COc1ccccc1COC(=O)C1=C(C)N(C[C@H]2CCCO2)C(=O)C[C@H]1c1ccc(Cl)cc1 [Example 167, (2-Methoxyphenyl)methyl-(4S)-4-(4-chlorophenyl)-6-methyl-2-oxo-1-[[(2R)-tetrahydrofuran-2-yl]methyl]-3,4-dihydropyridine-5-carboxylate]
5 | – | – | 600 nM | 54% | CCCCN1C(=O)CC(c2ccc(Cl)cc2)C(C(=O)OCc2ccccc2)=C1C (stereo not shown) [Compound 36, Benzyl 1-butyl-4-(4-chlorophenyl)-6-methyl-2-oxo-3,4-dihydropyridine-5-carboxylate]
6 | 4500 nM | 52% | – | – | CC1=C(C(=O)OCc2ccccc2)C(c2ccc(Cl)cc2)CC(=O)N1 (stereo not shown) [Compound 12, Benzyl 4-(4-chlorophenyl)-6-methyl-2-oxo-3,4-dihydro-1H-pyridine-5-carboxylate]
7 | 800 nM | 63% | – | – | COCCN1C(=O)CC(c2ccc(Cl)cc2)C(C(=O)OCc2ccccc2OC(F)(F)F)=C1C (stereo not shown) [Example 105, (2-trifluoromethoxyphenyl)methyl 4-(4-chlorophenyl)-1-(2-methoxyethyl)-6-methyl-2-oxo-3,4-dihydropyridine-5-carboxylate]
8 | – | 10% | – | – | CC1=C(C(=O)OCc2ccccc2)C(c2cccc(Cl)c2)CC(=O)N1 (stereo not shown) [Compound 11, 4-(3-Chloro-phenyl)-2-methyl-6-oxo-1,4,5,6-tetrahydro-pyridine-3-carboxylic acid benzyl ester]
9 | 300 nM | 107% | – | – | COc1ccccc1COC(=O)C1=C(C)N(CCO)C(=O)CC1c1ccc(Cl)cc1 (stereo not shown) [Compound 65, (2-methoxyphenyl)methyl 4-(4-chlorophenyl)-1-(2-hydroxyethyl)-6-methyl-2-oxo-3,4-dihydropyridine-5-carboxylate]
10 | – | – | 1100 nM | 57% | COCCN1C(=O)CC(c2ccc(Cl)cc2)C(C(=O)OCC2CCCCC2)=C1C (stereo not shown) [Example 113]
11 | 3600 nM | 77% | – | – | CC1=C(C(=O)OCc2ccccc2)C(c2ccc(Cl)cc2)CC(=O)N1CCN(C)C (stereo not shown) [Compound 50, Benzyl 4-(4-chlorophenyl)-1-[2-(dimethylamino)ethyl]-6-methyl-2-oxo-3,4-dihydropyridine-5-carboxylate]
12 | – | – | 12800 nM | – | COc1ccc(C2CC(=O)NC(C)=C2C(=O)OCc2ccccc2)cc1 (stereo not shown) [Compound 6, 4-(4-Methoxy-phenyl)-2-methyl-6-oxo-1,4,5,6-tetrahydro-pyridine-3-carboxylic acid benzyl ester]
13 | 30 nM | 93% | – | – | COC(=O)CN1C(=O)CC(c2ccc(Cl)cc2)C(C(=O)OCc2ccccc2OC)=C1C (stereo not shown) [Compound 73, (2-methoxyphenyl)methyl 4-(4-chlorophenyl)-1-(2-methoxy-2-oxo-ethyl)-6-methyl-2-oxo-3,4-dihydropyridine-5-carboxylate]
14 | 700 nM | 82% | – | – | COCCN1C(=O)CC(c2ccc(Cl)cc2)C(C(=O)OCc2cccc(F)c2)=C1C (stereo not shown) [Example 85, (3-fluorophenyl)methyl 4-(4-chlorophenyl)-1-(2-methoxyethyl)-6-methyl-2-oxo-3,4-dihydropyridine-5-carboxylate]
15 | 800 nM | 70% | – | – | CCN1C(=O)CC(c2ccc(Cl)cc2)C(C(=O)OCc2ccccc2)=C1C (stereo not shown) [Compound 34, Benzyl 4-(4-chlorophenyl)-1-ethyl-6-methyl-2-oxo-3,4-dihydropyridine-5-carboxylate]
16 | – | – | 20 nM | – | COc1ccccc1COC(=O)C1=C(C)N(C[C@H]2CCCO2)C(=O)C[C@H]1c1ccc(Cl)cc1 (racemic) [Compound 67, (2-methoxyphenyl)methyl (4S)-4-(4-chlorophenyl)-6-methyl-2-oxo-1-[[(2R)-tetrahydrofuran-2-yl]methyl]-3,4-dihydropyridine-5-carboxylate]
17 | – | – | 1400 nM | 34% | CCC1=C(C(=O)OCc2ccccc2)C(c2ccc(Cl)cc2)CC(=O)N1C (stereo not shown) [Compound 18, Benzyl 4-(4-chlorophenyl)-6-ethyl-1-methyl-2-oxo-3,4-dihydropyridine-5-carboxylate]
18 | 800 nM | 76% | – | – | CCCN1C(=O)CC(c2ccc(Cl)cc2)C(C(=O)OCc2ccccc2)=C1C (stereo not shown) [Compound 35, Benzyl 4-(4-chlorophenyl)-6-methyl-2-oxo-1-propyl-3,4-dihydropyridine-5-carboxylate]
19 | – | – | 3900 nM | – | CC1=C(C(=O)OCc2ccccc2)C(c2ccc(Cl)cc2F)CC(=O)N1 (stereo not shown) [Compound 15, benzyl 4-(4-chloro-2-fluoro-phenyl)-6-methyl-2-oxo-3,4-dihydro-1H-pyridine-5-carboxylate]
20 | – | – | 100 nM | – | COCCN1C(=O)CC(c2ccc(Cl)cc2)C(C(=O)OCc2ccccc2OC)=C1C (stereo not shown) [Compound 64, (2-methoxyphenyl)methyl 4-(4-chlorophenyl)-1-(2-methoxyethyl)-6-methyl-2-oxo-3,4-dihydropyridine-5-carboxylate]
21 | – | – | 1100 nM | 55% | COCCN1C(=O)CC(c2ccc(Cl)cc2)C(C(=O)OCCCc2ccccc2)=C1C (stereo not shown) [Example 111, 3-phenylpropyl 4-(4-chlorophenyl)-1-(2-methoxyethyl)-6-methyl-2-oxo-3,4-dihydropyridine-5-carboxylate]
22 | 300 nM | – | – | – | COCCN1C(=O)CC(c2ccc(Cl)cc2)C(C(=O)OCc2cccc(C)c2)=C1C (stereo not shown) [Example 99, m-tolylmethyl 4-(4-chlorophenyl)-1-(2-methoxyethyl)-6-methyl-2-oxo-3,4-dihydropyridine-5-carboxylate]
23 | – | – | 500 nM | 67% | COCCN1C(=O)CC(c2ccc(Cl)cc2)C(C(=O)OCc2ccccc2Cl)=C1C (stereo not shown) [Example 87, (2-chlorophenyl)methyl 4-(4-chlorophenyl)-1-(2-methoxyethyl)-6-methyl-2-oxo-3,4-dihydropyridine-5-carboxylate]
24 | 200 nM | – | – | – | COC(=O)CN1C(=O)CC(c2ccc(Cl)cc2)C(C(=O)OCc2ccccc2)=C1C (stereo not shown) [Compound 57, Benzyl 4-(4-chlorophenyl)-1-(2-methoxy-2-oxo-ethyl)-6-methyl-2-oxo-3,4-dihydropyridine-5-carboxylate]
25 | – | – | 37 nM | 107% | COc1ccccc1COC(=O)C1=C(C)N(C[C@@H]2CCCO2)C(=O)C[C@H]1c1ccc(Cl)nc1 (racemic) [Example 159, (2-Methoxyphenyl)methyl-(4S)-4-(6-chloro-3-pyridyl)-6-methyl-2-oxo-1-[[(2S)-tetrahydrofuran-2-yl]methyl]-3,4-dihydropyridine-5-carboxylate and (2-methoxyphenyl)methyl-(4R)-4-(6-chloro-3-pyridyl)-6-methyl-2-oxo-1-[[(2R)-tetrahydrofuran-2-yl]methyl]-3,4-dihydropyridine-5-carboxylate]
26 | – | – | 1 nM | – | COc1ccccc1COC(=O)C1=C(C)N(C[C@H]2CCCO2)C(=O)C[C@H]1c1ccc(Cl)nc1 (racemic) [Example 148, (2-methoxyphenyl)methyl (4S)-4-(6-chloro-3-pyridyl)-6-methyl-2-oxo-1-[[(2R)-tetrahydrofuran-2-yl]methyl]-3,4-dihydropyridine-5-carboxylate and 2-methoxyphenyl)methyl (4R)-4-(6-chloro-3-pyridyl)-6-methyl-2-oxo-1-[[(2S)-tetrahydrofuran-2-yl]methyl]-3,4-dihydropyridine-5-carboxylate]
